Our source for the IC50 values is patent US7008940B1, “Dihydrobenzofuran derivatives, process for the preparing thereof and agents” (Takeda Pharmaceutical Company Limited, priority 1999, dated 2006).

Counter-ions that a name gives are not always drawn.

This test concerns lipid peroxidation in rat cerebral cortical homogeneates. Briefly: Inhibitory effect on lipid peroxidation in rat cerebral cortical homogenates (thiobarbituric acid method). The class given is biochemical. As to conditions: lipoperoxide production in Jcl. Wistar rat cerebral cortex homogenate supernatant, 37° C. for 30 minutes, absorbance at 532 nm, vs DMSO-added group. Here is the method:
Inhibitory effect on lipid peroxidation in rat cerebral cortical homogeneates and oral administration to mouse.
Quantitative determination of lipoperoxide produced in brain homogenate was performed according to the method of Stocks et al. (Clin. Sci. Mol. Med. 47–215(1974)). As animals, brains of Jcl. Wistar male rats, 10–13 weeks age, were used. Rat cerebral cortices were obtained after decapitation, homogenized in an ice-cooled phosphate saline buffer (50 mM Ph 7.4) (Nichion Microhomogenizer, S-310E), centrifuged at 10,000 g for 10 minutes (Hitachi CF15D type, RT15A6 Anglerotor), and the supernatant was used in a test. This supernatant was diluted 3-fold with the same buffer. To this 1 mL were added 10 μL of test drugs dissolved in dimethyl sulfoxide (DMSO) to the final concentration of 0.0125, 0.025, 0.05, 0.10, 0.20, 0.40, 0.80 and 1.60 μM, respectively, which was incubated at 37° C. for 30 minutes. The reaction was stopped by addition of 200 μL of 35% perchloric acid, and centrifuged at 13,000 g for 10 minutes. To 1 mL of this supernatant was added 0.5 mL of 2-thiobarbituric acid (500 mg/100 mL) dissolved in 50% acetic acid, heated to boil at 95° C. for 15 minutes, which was determined by the absorbance at 532 nm. […]

In turn, `Cc1c(C)c2c(c3c1NC(C)(C)C3)CC(C)(C)O2` [Example 3, 1,6,7,8-Tetrahydro-2,2,4,5,7,7-hexamethyl-2H-furo [3,2-e]indole oxalate] returned a half-maximal inhibitory concentration (IC50) of 127 nM.
The figure for `Cc1c(C)c2c(c3c1NC(C)(C)C3)CC(C)(CN1CCC(NC(c3ccccc3)c3ccccc3)CC1)O2` (centres unmarked) [Example 11, N-(Diphenylmethyl)-1-[(1,6,7,8-tetrahydro-2,4,5,7,7-pentamethyl-2H-furo[3,2-e]indol-2-yl)methyl]-4-piperidineamine dihydrochloride] is 57 nM.

A word on the IC50: it is the concentration that inhibits the measured activity by half. High values mean lower potency, low ones higher potency.
